This is an account of results in US20070082880A1 (priority 2005, published 2007).

T1 sequence (Q04759 whole entry): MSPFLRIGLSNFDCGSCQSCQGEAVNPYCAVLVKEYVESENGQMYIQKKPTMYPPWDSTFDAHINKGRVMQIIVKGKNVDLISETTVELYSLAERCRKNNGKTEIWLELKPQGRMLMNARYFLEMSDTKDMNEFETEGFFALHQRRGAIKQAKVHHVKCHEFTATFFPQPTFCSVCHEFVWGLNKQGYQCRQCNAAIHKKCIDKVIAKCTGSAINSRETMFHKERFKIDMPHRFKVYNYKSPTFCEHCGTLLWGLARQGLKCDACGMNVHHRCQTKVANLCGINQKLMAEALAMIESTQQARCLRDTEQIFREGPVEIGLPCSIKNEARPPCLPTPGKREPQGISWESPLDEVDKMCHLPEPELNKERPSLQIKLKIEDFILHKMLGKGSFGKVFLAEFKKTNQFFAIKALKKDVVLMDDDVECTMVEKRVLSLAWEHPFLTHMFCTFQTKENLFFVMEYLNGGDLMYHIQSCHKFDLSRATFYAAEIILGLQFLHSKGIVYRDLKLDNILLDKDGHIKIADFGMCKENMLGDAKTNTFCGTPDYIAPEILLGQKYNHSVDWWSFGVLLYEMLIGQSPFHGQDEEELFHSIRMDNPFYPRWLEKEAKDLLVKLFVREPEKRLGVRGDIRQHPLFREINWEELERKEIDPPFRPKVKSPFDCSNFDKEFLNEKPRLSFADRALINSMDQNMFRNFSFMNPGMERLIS

This test addresses T1, human PKCθ full length enzyme (Homo sapiens, UniProt Q04759).
T1 construct: human PKCθ full length enzyme (Panvera Catalog No. P2996); purchased Panvera P2996
Briefly: PKCθ IMAP Assay. The format is biochemical. The following applies: average value when one or more samples were tested; ATP 6 uM, PKCθ 1 nM. The method, boiled down:
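IMAP fluorescence polarization after 20 min with binding beads measured phosphorylation of 100 nM 5FAM-peptide. Reactions held 1 nM full-length human PKCθ, 6 uM ATP, 5% DMSO and DTT-containing buffer, 25 min at room temperature. Compounds tested as 2:1 serial dilutions; controls lacked ATP or enzyme.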
Broadly, the IC50 is the midpoint of a concentration-inhibition curve. A higher IC50 goes with a need for much substance. Turning to `N#Cc1cnc2sc(C(=O)Nc3cccnc3)cc2c1Nc1ccc2[nH]ccc2c1` [Compound 251, 5-cyano-4-(1H-indol-5-ylamino)-N-pyridin-3-ylthieno[2,3-b]pyridine-2-carboxamide], the IC50 was determined as 1670 nM.
The result for `N#Cc1cnc2sc(C(=O)Nc3ccncc3)cc2c1Nc1ccc2[nH]ccc2c1` [Compound 252, 5-cyano-4-(1H-indol-5-ylamino)-N-pyridin-4-ylthieno[2,3-b]pyridine-2-carboxamide] reads 959 nM; that for `CN1CCN(C(=O)c2cc3c(Nc4ccc5[nH]ccc5c4)c(C#N)cnc3s2)CC1` [Compound 253, 4-(1H-indol-5-ylamino)-2-[(4-methylpiperazin-1-yl)carbonyl]thieno[2,3-b]pyridine-5-carbonitrile], 2280 nM; that for `N#Cc1cnc2sc(C(=O)NCCO)cc2c1Nc1ccc2[nH]ccc2c1` [Compound 254, 5-cyano-N-(2-hydroxyethyl)-4-(1H-indol-5-ylamino)thieno[2,3-b]pyridine-2-carboxamide], 864 nM.
The result for `Cc1c(Nc2c(C#N)cnc3sc(C(=O)N4CCOCC4)cc23)ccc2[nH]ccc12` [Compound 255, 4-[(4-methyl-1H-indol-5-yl)amino]-2-(morpholin-4-ylcarbonyl)thieno[2,3-b]pyridine-5-carbonitrile] reads 276 nM; that for `Cc1c(Nc2c(C#N)cnc3sc(C(=O)N4CCN(C)CC4)cc23)ccc2[nH]ccc12` [Compound 256, 4-[(4-methyl-1H-indol-5-yl)amino]-2-[(4-methylpiperazin-1-yl)carbonyl]thieno[2,3-b]pyridine-5-carbonitrile], 334 nM.
With `Cc1c(Nc2c(C#N)cnc3sc(C(=O)Nc4ccncc4)cc23)ccc2[nH]ccc12` [Compound 257, 5-cyano-4-[(4-methyl-1H-indol-5-yl)amino]-N-pyridin-4-ylthieno[2,3-b]pyridine-2-carboxamide], it took 25 nM to reach half-maximal inhibition (IC50).
As for `Cc1c(Nc2c(C#N)cnc3sc(C(=O)Nc4ccccc4)cc23)ccc2[nH]ccc12` [Compound 258, 5-cyano-4-[(4-methyl-1H-indol-5-yl)amino]-N-phenylthieno[2,3-b]pyridine-2-carboxamide], the midpoint of inhibition, the IC50, lay at 126 nM.
In the case of `Cc1c(Nc2c(C#N)cnc3sc(C(=O)NCc4ccccc4)cc23)ccc2[nH]ccc12` [Compound 259, N-benzyl-5-cyano-4-[(4-methyl-1H-indol-5-yl)amino]thieno[2,3-b]pyridine-2-carboxamide] it was 155 nM.
In the case of `Cc1c(Nc2c(C#N)cnc3sc(C(=O)NCCc4ccccc4)cc23)ccc2[nH]ccc12` [Compound 260, 5-cyano-4-[(4-methyl-1H-indol-5-yl)amino]-N-(2-phenylethyl)thieno[2,3-b]pyridine-2-carboxamide] it was 187 nM; in that of `Cc1c(Nc2c(C#N)cnc3sc(C(=O)N(C)C)cc23)ccc2[nH]ccc12` [Compound 261, 5-cyano-N,N-dimethyl-4-[(4-methyl-1H-indol-5-yl)amino]thieno[2,3-b]pyridine-2-carboxamide], 222 nM.
In turn, `COCCNC(=O)c1cc2c(Nc3ccc4[nH]ccc4c3C)c(C#N)cnc2s1` [Compound 262, 5-cyano-N-(2-methoxyethyl)-4-[(4-methyl-1H-indol-5-yl)amino]thieno[2,3-b]pyridine-2-carboxamide] returned an IC50 of 92 nM.
The result for `Cc1c(Nc2c(C#N)cnc3sc(C(=O)Nc4cccnc4)cc23)ccc2[nH]ccc12` [Compound 263, 5-cyano-4-[(4-methyl-1H-indol-5-yl)amino]-N-pyridin-3-ylthieno[2,3-b]pyridine-2-carboxamide] reads 71 nM.
`N#Cc1cnc2sc(C(=O)N3CCCC3)cc2c1Nc1cccc2[nH]ccc12` [Compound 264, 4-(1H-indol-4-ylamino)-2-(pyrrolidin-1-ylcarbonyl)thieno[2,3-b]pyridine-5-carbonitrile] gave an IC50 of 669 nM.
As to `Cc1c(Nc2c(C#N)cnc3sc(C(=O)N4CCNCC4)cc23)ccc2[nH]ccc12` [Compound 265, 4-[(4-methyl-1H-indol-5-yl)amino]-2-(piperazin-1-ylcarbonyl)thieno[2,3-b]pyridine-5-carbonitrile], half-maximal inhibition (IC50) was put at 232 nM.
`Cc1c(Nc2c(C#N)cnc3sc(C(=O)NC4CCNCC4)cc23)ccc2[nH]ccc12` [Compound 266, 5-cyano-4-[(4-methyl-1H-indol-5-yl)amino]-N-piperidin-4-ylthieno[2,3-b]pyridine-2-carboxamide] displayed an IC50 of 44 nM.
The result for `N#Cc1cnc2sc(CN3CCc4ccccc4C3)cc2c1Nc1ccc2[nH]ccc2c1` [Compound 268, 2-(3,4-dihydroisoquinolin-2(1H)-ylmethyl)-4-(1H-indol-5-ylamino)thieno[2,3-b]pyridine-5-carbonitrile] reads 1250 nM.
In the case of `N#Cc1cnc2sc(CN3CCN(c4ccccc4)CC3)cc2c1Nc1ccc2[nH]ccc2c1` [Compound 269, 4-(1H-indol-5-ylamino)-2-[(4-phenylpiperazin-1-yl)methyl]thieno[2,3-b]pyridine-5-carbonitrile] it was 4030 nM; in that of `C=C/C=C/c1cc2c(Nc3ccc4[nH]ccc4c3)c(C#N)cnc2s1` [Compound 270, 2-[(1E)-buta-1,3-dien-1-yl]-4-(1H-indol-5-ylamino)thieno[2,3-b]pyridine-5-carbonitrile], 201 nM; in that of `Cc1c(Nc2c(C#N)cnc3sc(/C=C/CCN4CCN(C)CC4)cc23)ccc2[nH]ccc12` [Compound 272, 4-[(4-methyl-1H-indol-5-yl)amino]-2-[(1E)-4-(4-methylpiperazin-1-yl)but-1-en-1-yl]thieno[2,3-b]pyridine-5-carbonitrile], 45 nM.
`Cc1c(Nc2c(C#N)cnc3sc(/C=C/CN4CCOCC4)cc23)ccc2[nH]ccc12` [Compound 275, 4-[(4-methyl-1H-indol-5-yl)amino]-2-[(1E)-3-morpholin-4-ylprop-1-en-1-yl]thieno[2,3-b]pyridine-5-carbonitrile] had a 50% inhibitory concentration (IC50) of 56 nM.
In the case of `Cc1c(Nc2c(C#N)cnc3sc(/C=C/CN4CCCC4)cc23)ccc2[nH]ccc12` [Compound 276, 4-[(4-methyl-1H-indol-5-yl)amino]-2-[(1E)-3-pyrrolidin-1-ylprop-1-en-1-yl]thieno[2,3-b]pyridine-5-carbonitrile] it was 23 nM.
The result for `CN1CCN(C/C=C/c2cc3c(Nc4ccc5[nH]ccc5c4)c(C#N)cnc3s2)CC1` [Compound 277, 4-(1H-indol-5-ylamino)-2-[(1E)-3-(4-methylpiperazin-1-yl)prop-1-en-1-yl]thieno[2,3-b]pyridine-5-carbonitrile] reads 304 nM; that for `Cc1c(Nc2c(C#N)cnc3sc(/C=C/CN4CCN(C)CC4)cc23)ccc2[nH]ccc12` [Compound 278, 4-[(4-methyl-1H-indol-5-yl)amino]-2-[(1E)-3-(4-methylpiperazin-1-yl)prop-1-en-1-yl]thieno[2,3-b]pyridine-5-carbonitrile], 12 nM.
In turn, `Cc1c(Nc2c(C#N)cnc3sc(/C=C/CN4CCN(C)CC4)c(C)c23)ccc2[nH]ccc12` [Compound 279, 3-methyl-4-[(4-methyl-1H-indol-5-yl)amino]-2-[(1E)-3-(4-methylpiperazin-1-yl)prop-1-en-1-yl]thieno[2,3-b]pyridine-5-carbonitrile] had an IC50 of 17 nM.
The result for `CCOC(=O)/C=C/c1cc2c(Nc3ccc4[nH]ccc4c3C)c(C#N)cnc2s1` [Compound 282, ethyl (2E)-3-{5-cyano-4-[(4-methyl-1H-indol-5-yl)amino]thieno[2,3-b]pyridin-2-yl}acrylate] reads 23 nM; that for `Cc1c(Nc2c(C#N)cnc3sc(/C=C/C(=O)OC(C)(C)C)cc23)ccc2[nH]ccc12` [Compound 286, tert-butyl (2E)-3-{5-cyano-4-[(4-methyl-1H-indol-5-yl)amino]thieno[2,3-b]pyridin-2-yl}acrylate], 314 nM; that for `N#Cc1cnc2sc(/C=C/C(=O)N3CCCC3)cc2c1Nc1ccc2[nH]ccc2c1` [Compound 288, 4-(1H-indol-5-ylamino)-2-[(1E)-3-oxo-3-pyrrolidin-1-ylprop-1-en-1-yl]thieno[2,3-b]pyridine-5-carbonitrile], 130 nM.
The result for `N#Cc1cnc2sc(/C=C/C(=O)NCCO)cc2c1Nc1ccc2[nH]ccc2c1` [Compound 289, (2E)-3-[5-cyano-4-(1H-indol-5-ylamino)thieno[2,3-b]pyridin-2-yl]-N-(2-hydroxyethyl)acrylamide] reads 2070 nM; that for `CN1CCN(C(=O)/C=C/c2cc3c(Nc4ccc5[nH]ccc5c4)c(C#N)cnc3s2)CC1` [Compound 290, 4-(1H-indol-5-ylamino)-2-[(1E)-3-(4-methylpiperazin-1-yl)-3-oxoprop-1-en-1-yl]thieno[2,3-b]pyridine-5-carbonitrile], 330 nM; that for `CC1CCCN1C(=O)/C=C/c1cc2c(Nc3ccc4[nH]ccc4c3)c(C#N)cnc2s1` (stereo not shown) [Compound 291, 4-(1H-indol-5-ylamino)-2-[(1E)-3-(2-methylpyrrolidin-1-yl)-3-oxoprop-1-en-1-yl]thieno[2,3-b]pyridine-5-carbonitrile], 105 nM.
In the case of `N#Cc1cnc2sc(/C=C/C(N)=O)cc2c1Nc1ccc2[nH]ccc2c1` [Compound 292, (2E)-3-[5-cyano-4-(1H-indol-5-ylamino)thieno[2,3-b]pyridin-2-yl]acrylamide] it was 183 nM.
In turn, `N#Cc1cnc2sc(/C=C/C(=O)Nc3cccnc3)cc2c1Nc1ccc2[nH]ccc2c1` [Compound 293, (2E)-3-[5-cyano-4-(1H-indol-5-ylamino)thieno[2,3-b]pyridin-2-yl]-N-pyridin-3-ylacrylamide] returned an IC50 of 33600 nM.
In the case of `Cc1c(Nc2c(C#N)cnc3sc(/C=C/C(=O)N4CCCC4)cc23)ccc2[nH]ccc12` [Compound 294, 4-[(4-methyl-1H-indol-5-yl)amino]-2-[(1E)-3-oxo-3-pyrrolidin-1-ylprop-1-en-1-yl]thieno[2,3-b]pyridine-5-carbonitrile] it was 4 nM.
